Reference: ChEMBL document CHEMBL1133356, “Examination of novel non-phosphorus-containing phosphotyrosyl mimetics against protein-tyrosine phosphatase-1B and demonstration of differential affinities toward Grb2 SH2 domains” (Bioorg Med Chem Lett, 2000)
pIC50: −log10 of the molar value. Peptide text beside a SMILES is read from it. * marks the point of attachment. Carboxymethyl = O=C(O)C*

target: T1, Growth factor receptor-bound protein 2 (Homo sapiens, UniProt P62993); test: Inhibition of Growth factor receptor bound protein 2 SH2 domain binding in ELISA

pIC50 | Structure (SMILES)
< 4.00 | NC(=O)C[C@H](NC(=O)C1(NC(=O)[C@H](Cc2ccc(O)c(C(=O)O)c2)NC(=O)C(=O)O)CCCCC1)C(=O)NCCCc1cccc2ccccc12
4.30 | NC(=O)C[C@H](NC(=O)C1(NC(=O)[C@H](Cc2ccc(C(=O)O)c(O)c2)NC(=O)C(=O)O)CCCCC1)C(=O)NCCCc1cccc2ccccc12

target: T1, Growth factor receptor-bound protein 2; test: Inhibition of Growth factor receptor bound protein 2 SH2 domain binding in plasmon resonance assay

pIC50 | Structure (SMILES)
5.70 | NC(=O)C[C@H](NC(=O)C1(NC(=O)[C@H](Cc2ccc(C(F)(F)C(=O)O)cc2)NC(=O)C(=O)O)CCCCC1)C(=O)NCCCc1cccc2ccccc12
4.82 | NC(=O)C[C@H](NC(=O)C1(NC(=O)[C@H](Cc2ccc(OCC(=O)O)cc2)NC(=O)C(=O)O)CCCCC1)C(=O)NCCCc1cccc2ccccc12
6.22 | NC(=O)C[C@H](NC(=O)C1(NC(=O)[C@H](Cc2ccc(CC(=O)O)cc2)NC(=O)C(=O)O)CCCCC1)C(=O)NCCCc1cccc2ccccc12
< 4.00 | NC(=O)C[C@H](NC(=O)C1(NC(=O)[C@H](Cc2ccc(OCC(=O)O)c(OCC(=O)O)c2)NC(=O)C(=O)O)CCCCC1)C(=O)NCCCc1cccc2ccccc12

target: T2, Tyrosine-protein phosphatase non-receptor type 1 (Homo sapiens, UniProt P18031); test: Tested for binding affinity towards Protein-tyrosine Phosphatase 1B; set-up: species or system Rattus norvegicus
T2 sequence (P18031 whole entry): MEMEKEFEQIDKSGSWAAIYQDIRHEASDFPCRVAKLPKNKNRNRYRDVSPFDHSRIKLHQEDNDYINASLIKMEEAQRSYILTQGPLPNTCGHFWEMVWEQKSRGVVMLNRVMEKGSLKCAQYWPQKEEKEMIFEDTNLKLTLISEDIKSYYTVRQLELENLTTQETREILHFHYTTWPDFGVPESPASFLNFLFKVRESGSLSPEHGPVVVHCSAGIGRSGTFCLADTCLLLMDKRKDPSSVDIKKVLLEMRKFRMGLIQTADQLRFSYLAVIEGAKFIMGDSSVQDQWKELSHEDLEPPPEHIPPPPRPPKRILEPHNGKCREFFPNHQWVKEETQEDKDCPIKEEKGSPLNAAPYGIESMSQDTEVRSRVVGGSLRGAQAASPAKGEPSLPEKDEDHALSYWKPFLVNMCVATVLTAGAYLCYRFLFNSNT

Structure (SMILES) | pIC50
CC(=O)N[C@@H](CC(=O)O)C(=O)N[C@@H](C)C(=O)N[C@@H](CC(=O)O)C(=O)N[C@@H](CCC(=O)O)C(=O)N[C@@H](Cc1ccc(OCC(=O)O)cc1)C(=O)N[C@@H](CC(C)C)C(N)=O (Ac-DADEY(Carboxymethyl)L-NH2) | 2.92
CC(=O)N[C@@H](CC(=O)O)C(=O)N[C@@H](C)C(=O)N[C@@H](CC(=O)O)C(=O)N[C@@H](CCC(=O)O)C(=O)N[C@@H](Cc1ccc(C(C(=O)O)C(=O)O)cc1)C(=O)N[C@@H](CC(C)C)C(N)=O (HELM PEPTIDE1{[ac].D.A.D.E.[O=C(O)C(C(=O)O)c1ccc(C[C@H](N[*:1])C(=O)[*:2])cc1].L.[am]}$$$$V2.0) | 2.82
CC(=O)N[C@@H](CC(=O)O)C(=O)N[C@@H](C)C(=O)N[C@@H](CC(=O)O)C(=O)N[C@@H](CCC(=O)O)C(=O)N[C@@H](Cc1ccc(C(F)(C(=O)O)C(=O)O)cc1)C(=O)N[C@@H](CC(C)C)C(N)=O (HELM PEPTIDE1{[ac].D.A.D.E.[O=C(O)C(F)(C(=O)O)c1ccc(C[C@H](N[*:1])C(=O)[*:2])cc1].L.[am]}$$$$V2.0) | 3.37
CC(=O)N[C@@H](CC(=O)O)C(=O)N[C@@H](C)C(=O)N[C@@H](CC(=O)O)C(=O)N[C@@H](CCC(=O)O)C(=O)N[C@@H](Cc1ccc(C(F)(F)C(=O)O)cc1)C(=O)N[C@@H](CC(C)C)C(N)=O (HELM PEPTIDE1{[ac].D.A.D.E.[O=C(O)C(F)(F)c1ccc(C[C@H](N[*:1])C(=O)[*:2])cc1].L.[am]}$$$$V2.0) | 3.19
CC(=O)N[C@@H](CC(=O)O)C(=O)N[C@@H](C)C(=O)N[C@@H](CC(=O)O)C(=O)N[C@@H](CCC(=O)O)C(=O)N[C@@H](Cc1ccc(CC(=O)O)c(O)c1)C(=O)N[C@@H](CC(C)C)C(N)=O (HELM PEPTIDE1{[ac].D.A.D.E.[O=C(O)Cc1ccc(C[C@H](N[*:1])C(=O)[*:2])cc1O].L.[am]}$$$$V2.0) | 1.89
CC(=O)N[C@@H](CC(=O)O)C(=O)N[C@@H](C)C(=O)N[C@@H](CC(=O)O)C(=O)N[C@@H](CCC(=O)O)C(=O)N[C@@H](Cc1ccc(CC(=O)O)cc1)C(=O)N[C@@H](CC(C)C)C(N)=O (HELM PEPTIDE1{[ac].D.A.D.E.[O=C(O)Cc1ccc(C[C@H](N[*:1])C(=O)[*:2])cc1].L.[am]}$$$$V2.0) | 2.60
CC(=O)N[C@@H](CC(=O)O)C(=O)N[C@@H](C)C(=O)N[C@@H](CC(=O)O)C(=O)N[C@@H](CCC(=O)O)C(=O)N[C@@H](Cc1ccc(O)c(C(=O)O)c1)C(=O)N[C@@H](CC(C)C)C(N)=O (HELM PEPTIDE1{[ac].D.A.D.E.[O=C(O)c1cc(C[C@H](N[*:1])C(=O)[*:2])ccc1O].L.[am]}$$$$V2.0) | 2.34
CC(=O)N[C@@H](CC(=O)O)C(=O)N[C@@H](C)C(=O)N[C@@H](CC(=O)O)C(=O)N[C@@H](CCC(=O)O)C(=O)N[C@@H](Cc1ccc(C(=O)O)cc1)C(=O)N[C@@H](CC(C)C)C(N)=O (HELM PEPTIDE1{[ac].D.A.D.E.[O=C(O)c1ccc(C[C@H](N[*:1])C(=O)[*:2])cc1].L.[am]}$$$$V2.0) | 2.36
CC(=O)N[C@@H](CC(=O)O)C(=O)N[C@@H](C)C(=O)N[C@@H](CC(=O)O)C(=O)N[C@@H](CCC(=O)O)C(=O)N[C@@H](Cc1ccc(OP(=O)(O)O)cc1)C(=O)N[C@@H](CC(C)C)C(N)=O (HELM PEPTIDE1{[ac].D.A.D.E.[O=C([C@H](Cc1ccc(OP(=O)(O)O)cc1)N[*:1])[*:2]].L.[am]}$$$$V2.0) | 5.49

Second part, the molecule after the results:

pIC50 | Structure (SMILES)
4.72 | CC(=O)N[C@@H](CC(=O)O)C(=O)N[C@@H](C)C(=O)N[C@@H](CC(=O)O)C(=O)N[C@@H](CCC(=O)O)C(=O)N[C@@H](Cc1ccc(OCC(=O)O)c(C(=O)O)c1)C(=O)N[C@@H](CC(C)C)C(N)=O (HELM PEPTIDE1{[ac].D.A.D.E.[O=C(O)COc1ccc(C[C@H](N[*:1])C(=O)[*:2])cc1C(=O)O].L.[am]}$$$$V2.0)
3.10 | CC(=O)N[C@@H](CC(=O)O)C(=O)N[C@@H](C)C(=O)N[C@@H](CC(=O)O)C(=O)N[C@@H](CCC(=O)O)C(=O)N[C@@H](Cc1ccc(OCC(=O)O)c(OCC(=O)O)c1)C(=O)N[C@@H](CC(C)C)C(N)=O (HELM PEPTIDE1{[ac].D.A.D.E.[O=C(O)COc1ccc(C[C@H](N[*:1])C(=O)[*:2])cc1OCC(=O)O].L.[am]}$$$$V2.0)
2.43 | CC(=O)N[C@@H](CC(=O)O)C(=O)N[C@@H](C)C(=O)N[C@@H](CC(=O)O)C(=O)N[C@@H](CCC(=O)O)C(=O)N[C@@H](Cc1ccc(CC(=O)O)c(C(=O)O)c1)C(=O)N[C@@H](CC(C)C)C(N)=O (HELM PEPTIDE1{[ac].D.A.D.E.[O=C(O)Cc1ccc(C[C@H](N[*:1])C(=O)[*:2])cc1C(=O)O].L.[am]}$$$$V2.0)
2.28 | CC(=O)N[C@@H](CC(=O)O)C(=O)N[C@@H](C)C(=O)N[C@@H](CC(=O)O)C(=O)N[C@@H](CCC(=O)O)C(=O)N[C@@H](Cc1ccc(C(=O)O)c(O)c1)C(=O)N[C@@H](CC(C)C)C(N)=O (HELM PEPTIDE1{[ac].D.A.D.E.[O=C(O)c1ccc(C[C@H](N[*:1])C(=O)[*:2])cc1O].L.[am]}$$$$V2.0)
